Reference: patent US20240336595A1, “BIFUNCTIONAL COMPOUNDS FOR DEGRADING BTK WITH DIMINISHED IMID ACTIVITY” (NURIX THERAPEUTICS, INC., priority 2021, published 2024)
Entries after “also recorded” stand apart in the source; their conditions may differ.

Experiments:
Aiolos = assay: IMiD activity: Aiolos degradation in PBMCs by flow cytometry; format: cell-based; settings: human PBMCs, 24 hours
Description: In addition, Compounds 1-24 were assayed for IMiD activity. Frozen human peripheral blood mononuclear cells (PBMCs) were thawed and treated with DMSO or compound for 24 hours and then fixed and permeabilized using a Foxp3/Transcription Factor Fixation/Permeabilization Kit (eBioscience, 00-5523). Cells were stained with fluorophore-conjugated antibodies against CD20 (Biolegend 302330), CD3 (BD Pharmingen 552127), and Aiolos (Biolegend 371106). An additional set of DMSO-treated PBMCs was stained for CD20, CD3, and an AlexaFluor 647-conjugated mouse IgG1 isotype control antibody (Biolegend 400136). Stained cells were run on an Attune NxT Acoustic Focusing Flow Cytometer (Thermo-Fisher A29004), and data was analyzed using FlowJo (v10.5.3) and GraphPad Prism (v7.00) software. Single lymphocytes were gated for B cells (CD20+CD3-) and T cells (CD3+CD20-), and the geometric mean fluorescence intensity (MFI) of Aiolos was calculated for each population. The MFI of the isotype control was calculated for each population and used to quantify background staining. Percent Aiolos degradation was calculated for each compound-treated sample using the following equation: […]
DC50 is the compound concentration degrading 50% of Aiolos. Dmax is the maximum percent Aiolos degradation in the assay.

[1] = test system: Experimental autoimmune encephalomyelitis (EAE); assay: Experimental autoimmune encephalomyelitis (EAE) model; format: in vivo, C57BL/6 mice
Description: EAE was induced in C57BL/6 mice by immunization with an emulsion of MOG1-125 in complete Freund's adjuvant (CFA), followed by administration of pertussis toxin in PBS, first on the day of immunization (Day 0) and then again the following day (Day 1).
Dosing of all mice started on Day −1 and continued through Day 22. Fingolimod (FTY720, Gilenya) is the a commonly used positive control in this model.
Statistical significance was determined between vehicle control and treated groups based on the end clinical scores using Wilcoxon's non-parametric test.
Statistical analysis: Demyelination (anti-MBP) with Wilcoxon's non-parametric test; inflammatory foci or apoptosis with two-tailed Student's t-test.

MRL/lpr model = assay: MRL/lpr lupus model; format: in vivo, MRL/lpr mice
Description: Dexamethasone was used as positive control.
Statistical significance was determined between vehicle control and treated groups by ANOVA with Dunnett's post-hoc analysis.
Glomeruli size is a quantitative measure that correlates well with the histopathological grade and severity of nephritis in this model. Statistical significance was determined between vehicle control and treated groups by ANOVA with Dunnett's post-hoc analysis (glomerulus diameter) or with a Kruskal-Wallis test with Dunn's post-hoc analysis (summed scores). * p<0.05, ** p<0.01, *** p<0.001**** p<0.0001.

[2] = Exposure in cerebrospinal fluid after a single oral dose; format: in vivo, Male C57BL/6 mice; settings: mouse, single oral dose 300 mg/kg
Description: Male C57BL/6 mice were administered Compound 1 orally at 300 mg/kg and 4, 8, or 24 hours after dosing CSF and plasma was collected from three mice per time point. The concentration of Compound 1 in CSF and plasma was determined by LC/MS/MS; free plasma concentration was calculated by multiplying total plasma concentration by the previously determined percentage of Compound 1 unbound to plasma protein.

intracranial TMD8 tumors = assay: Intracranial TMD8 tumor model, tumor burden; format: in vivo, female CB.17 SCID mice; settings: 90 mg/kg orally every day for twelve days, vs vehicle
Description: TMD8 is a human activated B cell (ABC)-type diffuse large B cell lymphoma (DLBCL) cell line that is dependent on BTK signaling for survival (Davis, R. E., Ngo, V. N., Lenz, G., Tolar, P., Young, R. M., Romesser, P. B., Staudt, L. M. (2010). Chronic active B-cell-receptor signalling in diffuse large B-cell lymphoma. Nature, 463(7277), 88-92. doi: 10.1038/nature08638).
TMD8 cells were implanted into female CB.17 SCID mice by intracranial injection of 5E5 TMD8 cells. Treatment with compound 1 begun the following day. Mice were treated orally every day for twelve days with either vehicle or 90 mg/kg of Compound 1. Brains were then harvested, dissociated into single cell suspensions and BTK level in TMD8 cells was assessed by flow cytometry. TMD8 cells in dissociated brain tissue were identified by human-specific surface markers (CD20+HLA+) and total numbers of TMD8 cells per brain is reported in (A, tumor burden). Percent BTK remaining in TMD8 cells (B) was calculated according to the below formula: […]

BTK = BTK (Mus musculus, UniProt P35991); assay: BTK level in spleen B cells after NP-KLH immunization; format: in vivo, Mice; set-up: from tissue; host or cells: mouse spleen B cells (CD19+ TCRbeta-)
BTK, sequence (P35991 whole entry): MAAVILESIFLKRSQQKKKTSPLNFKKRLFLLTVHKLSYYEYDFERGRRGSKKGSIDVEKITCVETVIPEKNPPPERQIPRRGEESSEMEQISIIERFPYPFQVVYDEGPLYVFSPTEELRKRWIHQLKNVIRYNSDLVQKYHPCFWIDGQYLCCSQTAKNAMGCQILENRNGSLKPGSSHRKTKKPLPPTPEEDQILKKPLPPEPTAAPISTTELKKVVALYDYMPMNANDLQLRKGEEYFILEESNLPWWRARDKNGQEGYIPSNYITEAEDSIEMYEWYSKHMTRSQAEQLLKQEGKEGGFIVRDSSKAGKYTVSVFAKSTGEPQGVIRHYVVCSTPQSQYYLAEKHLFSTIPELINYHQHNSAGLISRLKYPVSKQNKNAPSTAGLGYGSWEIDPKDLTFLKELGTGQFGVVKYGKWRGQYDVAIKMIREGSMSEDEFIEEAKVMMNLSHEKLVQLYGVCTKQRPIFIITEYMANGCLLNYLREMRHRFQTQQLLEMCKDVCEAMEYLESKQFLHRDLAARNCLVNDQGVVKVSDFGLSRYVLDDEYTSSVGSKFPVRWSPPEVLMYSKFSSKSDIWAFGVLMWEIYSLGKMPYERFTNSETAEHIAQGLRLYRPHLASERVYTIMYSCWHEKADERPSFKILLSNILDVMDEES
Description: Mice were immunized by intraperitoneal injection of 200 μL of immunogen containing 100 μg NP-32-KLH (Biosearch Technologies, Cat. N-5060-25,Lot. 156285-01) and 1% Alum (Alhydrogel, 2%, Invivogen Cat. Vac-alu-250, Batch 0001715532, Exp. July 2022), prepared in phosphate buffered saline. Group 1 mice were not immunized and used as control. Mice in Group 2 to 5 were dosed orally once a day from Day 1 to Day 7 with compounds or vehicle for six additional days and then sacrificed the following day. Splenocytes and bone marrow were harvested 24 hours following the final dosing of compound on Day 7. Spleens harvested at the end of the study were dissociated, and red blood cells were lysed with ammonium-chloride-potassium (ACK) lysis buffer. 1 million cells per tissue were stained for each flow cytometry panel.
Cells were permeabilized and stained for lineage markers and intracellular BTK. B cells were gated on CD19+ TCRbeta−, and T cells were gated on CD19− and TCRbeta+.

[3] = H&E-stained kidney tissue, end of study

## CN1CCN([C@@H]2CCCN(c3cnc(C(N)=O)c(Nc4ccc(C5CCN(CC6CCN(c7ccc(C(=O)N[C@H]8CCC(=O)NC8=O)nc7)CC6)CC5)cc4)n3)C2)C1=O [Compound 1]
Aiolos; compound concentration degrading 50% of Aiolos
  DC50: 631 nM
Aiolos; maximum percent Aiolos degradation in the assay
  Dmax: 18.7%
[1]; EAE, 30 mg/kg, compared with ibrutinib 30 mg/kg
  mean clinical score: superior to Ibrutinib; also recorded: lower mean clinical score than ibrutinib
[1]; prophylactic daily oral treatment, Day −1 through Day 22, dose dependence
  EAE clinical scores: dose-dependent reduction of EAE clinical scores
MRL/lpr model; 30 mg/kg, Urine Protein Score AUC
  protein urine score, statistically significant reduction vs vehicle: statistically significant reduction
MRL/lpr model; 30 mg/kg, vs vehicle
  anti-ds DNA autoantibody in end of study serum: statistically significant reduction
MRL/lpr model; [3]
  overall summed histology score: more effective than Ibrutinib
  size of the glomeruli: more effective than Ibrutinib
MRL/lpr model; MRL/lpr model
  kidney disease: significantly ameliorated kidney disease
MRL/lpr model; daily oral, starting at 10 weeks of age, dose dependence
  urine protein score: dose-dependent reduction of urine protein score
[2]
  ability to cross the blood brain barrier: crosses the blood brain barrier
[2]; 4, 8, 24 hours
  exposure in cerebral spinal fluid (CSF): demonstrates exposure in cerebral spinal fluid (CSF)
Intracranial TMD8 tumors
  tumor burden (total TMD8 cells per brain): reduced tumor burden
Intracranial TMD8 tumors; listed as compound 1
  tumor burden (total TMD8 cells per brain): significantly reduced TMD8 tumor cells
BTK; NP-KLH immunized mice, oral once a day
  BTK degradation in spleens: robust BTK degradation
BTK; spleen, 24 hours after the final dose, normalized to naive group
  BTK levels (percent BTK remaining in B cells): 13.4 % of baseline
